Results taken from PubChem BioAssay AID1963853 (Molecular Pharmacology Branch, DTP, NCI, 2024).

Test system: 266295-075-R-J1-PDC spheroid viability
Assay: Anticancer human tumor 266295-075-R-J1-PDC patient-derived head and neck squamous carcinoma cell line growth inhibition [POLQ]
Conditions: spheroids with HUVEC and MSC; for IC50: curve of first compound; for viability, T/C: stronger effect = lower value
Method in brief: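 PDC + HUVEC + MSC complex spheroids; POLQ inhibitors ± partner drugs; top conc. at/near clinical Cmax, else 10 microM (SN-38 1 microM), half-log dilutions; 37 degrees C, 5% CO2.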

[1] = second compound 0.0316 µM, first compound 0.0316 µM
[2] = second compound 0.0316 µM, first compound 0.1 µM
[3] = second compound 0.0316 µM, first compound 0.316 µM
[4] = second compound 0.0316 µM, first compound 1 µM
[5] = second compound 0.1 µM, first compound 0.0316 µM
[6] = second compound 0.1 µM, first compound 0.1 µM
[7] = second compound 0.1 µM, first compound 0.316 µM
[8] = second compound 0.1 µM, first compound 1 µM
[9] = second compound 0.316 µM, first compound 0.0316 µM
[10] = second compound 0.316 µM, first compound 0.1 µM
[11] = second compound 0.316 µM, first compound 0.316 µM
[12] = second compound 0.316 µM, first compound 1 µM
[13] = second compound 1 µM, first compound 0.0316 µM
[14] = second compound 1 µM, first compound 0.1 µM
[15] = second compound 1 µM, first compound 0.316 µM
[16] = second compound 1 µM, first compound 1 µM
[17] = second compound 3.16 µM, first compound 0.0316 µM
[18] = second compound 3.16 µM, first compound 0.1 µM
[19] = second compound 3.16 µM, first compound 0.316 µM
[20] = second compound 3.16 µM, first compound 1 µM
[21] = second compound 10 µM, first compound 0.0316 µM
[22] = second compound 10 µM, first compound 0.1 µM
[23] = second compound 10 µM, first compound 0.316 µM
[24] = second compound 10 µM, first compound 1 µM
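Also: spheroids exposed to compounds for seven days before readout.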

C=CCn1c(=O)c2cnc(Nc3ccc(N4CCN(C)CC4)cc3)nc2n1-c1cccc(C(C)(C)O)n1 + Cc1cccc(N(C)C(=O)C2C(O)CCN2c2nc(C)cc(C(F)(F)F)c2C#N)c1
IC50 (second compound 0.0316 µM): > 1 µM
IC50 (second compound 0.1 µM): > 1 µM
IC50 (second compound 0.316 µM): > 1 µM
IC50 (second compound 1 µM): > 1 µM
IC50 (second compound 3.16 µM): > 1 µM
IC50 (second compound 10 µM): > 1 µM
viability, T/C (second compound 0.0316 µM, first compound 0.00316 µM): 97.4%
viability, T/C (second compound 0.0316 µM, first compound 0.01 µM): 97.7%
viability, T/C [1]: 112%
viability, T/C [2]: 101%
viability, T/C [3]: 80%
viability, T/C [4]: 62.5%
viability, T/C (second compound 0.1 µM, first compound 0.00316 µM): 101%
viability, T/C (second compound 0.1 µM, first compound 0.01 µM): 115%
viability, T/C [5]: 111%
viability, T/C [6]: 127%
viability, T/C [7]: 79.4%
viability, T/C [8]: 63%
viability, T/C (second compound 0.316 µM, first compound 0.00316 µM): 119%
viability, T/C (second compound 0.316 µM, first compound 0.01 µM): 116%
viability, T/C [9]: 99.7%
viability, T/C [10]: 131%
viability, T/C [11]: 81.7%
viability, T/C [12]: 64.7%
viability, T/C (second compound 1 µM, first compound 0.00316 µM): 114%
viability, T/C (second compound 1 µM, first compound 0.01 µM): 104%
viability, T/C [13]: 119%
viability, T/C [14]: 78.4%
viability, T/C [15]: 77.4%
viability, T/C [16]: 63.6%
viability, T/C (second compound 3.16 µM, first compound 0.00316 µM): 118%
viability, T/C (second compound 3.16 µM, first compound 0.01 µM): 93.6%
viability, T/C [17]: 91.6%
viability, T/C [18]: 116%
viability, T/C [19]: 68.8%
viability, T/C [20]: 71.5%
viability, T/C (second compound 10 µM, first compound 0.00316 µM): 137%
viability, T/C (second compound 10 µM, first compound 0.01 µM): 117%
viability, T/C [21]: 102%
viability, T/C [22]: 128%
viability, T/C [23]: 87.7%
viability, T/C [24]: 81.8%

CCc1cc2c(N3CCc4c(cc(Cn5ccnc5)cc4-c4cn(C)nc4C(F)(F)F)C3=O)cc(C)nc2c(OC)n1 + Cc1cccc(N(C)C(=O)C2C(O)CCN2c2nc(C)cc(C(F)(F)F)c2C#N)c1
IC50 (second compound 0.0316 µM): > 10 µM
IC50 (second compound 0.1 µM): > 10 µM
IC50 (second compound 0.316 µM): > 10 µM
IC50 (second compound 1 µM): > 10 µM
IC50 (second compound 3.16 µM): > 10 µM
IC50 (second compound 10 µM): > 10 µM
viability, T/C [1]: 72.8%
viability, T/C [2]: 89%
viability, T/C [3]: 81.6%
viability, T/C [4]: 111%
viability, T/C (second compound 0.0316 µM, first compound 3.16 µM): 130%
viability, T/C (second compound 0.0316 µM, first compound 10 µM): 120%
viability, T/C [5]: 102%
viability, T/C [6]: 90.4%
viability, T/C [7]: 101%
viability, T/C [8]: 110%
viability, T/C (second compound 0.1 µM, first compound 3.16 µM): 89.3%
viability, T/C (second compound 0.1 µM, first compound 10 µM): 114%
viability, T/C [9]: 97.7%
viability, T/C [10]: 105%
viability, T/C [11]: 102%
viability, T/C [12]: 122%
viability, T/C (second compound 0.316 µM, first compound 3.16 µM): 131%
viability, T/C (second compound 0.316 µM, first compound 10 µM): 123%
viability, T/C [13]: 87.1%
viability, T/C [14]: 88.4%
viability, T/C [15]: 102%
viability, T/C [16]: 98.5%
viability, T/C (second compound 1 µM, first compound 3.16 µM): 135%
viability, T/C (second compound 1 µM, first compound 10 µM): 121%
viability, T/C [17]: 83.7%
viability, T/C [18]: 102%
viability, T/C [19]: 117%
viability, T/C [20]: 109%
viability, T/C (second compound 3.16 µM, first compound 3.16 µM): 138%
viability, T/C (second compound 3.16 µM, first compound 10 µM): 137%
viability, T/C [21]: 101%
viability, T/C [22]: 93.2%
viability, T/C [23]: 111%
viability, T/C [24]: 127%
viability, T/C (second compound 10 µM, first compound 3.16 µM): 122%
viability, T/C (second compound 10 µM, first compound 10 µM): 145%
